The structures appear in SMILES notation.

This data set is described as follows: gradient 5% acetonitrile 3 min, to 50% in 2 min, to 85% in 15 min, held 3 min, 100 µL/min. Particulars: column: Zorbax Extend-C18 2.1 x 50 mm; eluents: water / acetonitrile, 0.1% formic acid. Summed up: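 A Zorbax Extend-C18 column (2.1 × 50 mm, 1.8 μm) run at 100 μL/min with water and acetonitrile, both containing 0.1% formic acid, separated mixtures of ~100 pure standards. The HPLC was coupled to a quadrupole time-of-flight mass spectrometer operated in positive and negative ionization mode, with dead and dwell volumes of 40 μL and 900 μL. Each retention time was taken from a computationally picked adduct peak that was then manually inspected.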
`O=C(Nc1ccccc1F)N1CCC(n2cnc3ccc(F)cc3c2=O)CC1`: the RP-LC retention time is 743 s. In the case of `CC(C)CN(CC(C)C)C(=O)C1CCCN(c2ncnc3c2nc2n3CCCCC2)C1` (stereo not drawn), the RP-LC retention time amounted to 1000 s. The value for `Cc1ccc(-c2ccnc3c(C(=O)NC(C)c4ccncc4)cnn23)cc1C` (stereo not drawn) was 668 s. In turn, `Cc1cc(=O)n(CC(=O)Nc2ccc(Br)cc2F)c(N2CCC(C)CC2)n1` showed an RP-LC retention time of 750 s. The compound `c1ccc(C2(c3ccccc3)CC2C2=NCCN2)cc1` (stereo not drawn) showed an RP-LC retention time of 732 s. The compound `O=C(NC1CC1)[C@@H]1C[C@H](Oc2ccccc2)CN1S(=O)(=O)c1cccc2nsnc12` came in with an RP-LC retention time of 828 s. For `Cc1cccc(NC(=O)N2C[C@@H](F)C[C@H]2C(=O)N2CCc3ccccc3C2)c1C`, the RP-LC retention time is 811 s. As for `COc1ccc(CCC(=O)N2CCc3cc(-c4csc(C)n4)ccc32)cc1`, the RP-LC retention time was found to be 1060 s. For `CC(=O)c1cccc(C(=O)N2CCC3(CC2)NC(=O)N(Cc2ccccc2)C3=O)c1` the value was 733 s. For `CCn1c(=O)c(N2CCC(NC(=O)Nc3ccc4c(c3)OCCO4)CC2)nc2ccccc21` the value was 838 s; for `CCOc1ccccc1NC(=O)c1cnc2c(c1)c(=O)n(C)c(=O)n2-c1ccc(OC)cc1`, 961 s. For `O=C1C2N=NN(Cc3nc(-c4ccc(Cl)cc4)no3)C2C(=O)N1c1ccc2c(c1)CCC2` (stereo not drawn) the value was 1160 s. Take `CCn1ccc2cc(S(=O)(=O)N3CCCC(C(=O)NCc4cc(OC)ccc4OC)C3)ccc21` (stereo not drawn): the RP-LC retention time stood at 988 s. `Cc1cc(C)n(-c2ccc(C(=O)NCc3ccc(F)cc3F)cn2)n1` displayed an RP-LC retention time of 929 s.

`O=S(=O)(Oc1ccc(Cl)cc1)c1cccc2cccnc12`: the RP-LC retention time amounted to 1050 s. For `CC(=O)Nc1nc2ccc(CC(=O)N3CCN(c4ccccn4)CC3)cc2s1` the value was 570 s. On to `Cc1ccc(-n2ccn3c(CCC(=O)NCCc4c[nH]c5ccccc45)nnc3c2=O)cc1C`, for which the RP-LC retention time worked out at 757 s.

Consider `Cc1nc(-c2csc(S(=O)(=O)N3CCC(C(=O)NC4CC4)CC3)c2)no1`, for which the RP-LC retention time came out at 723 s. `COc1ccc(F)cc1-c1cc(NC(=O)[C@@H]2CCCNC2)ncc1Cl` displayed an RP-LC retention time of 737 s.

In turn, `Cc1nc([C@@H]2CN(S(=O)(=O)c3ccc(Cl)s3)C[C@H]2C(N)=O)n[nH]1` returned an RP-LC retention time of 631 s. As for `Cc1ccccc1OCC(=O)Nc1cc2c(cc1Oc1ccccc1)n(C)c(=O)c(=O)n2C`, the RP-LC retention time worked out at 939 s. For `COC(=O)C1C(=O)C2=C(CC1C)NC(=O)CC2c1cccc(C)c1` (stereo not drawn) the value was 675 s.

As for `Cc1nn(-c2ccc(-c3ccccc3)nn2)c(C)c1S(=O)(=O)N1CCCCC1`, the RP-LC retention time is 1090 s. For `CN(C)S(=O)(=O)c1cc2c(cc1N1CCN(c3ccccn3)CC1)Oc1ccccc1NC2=O` the value was 639 s; for `Cc1noc(-c2cc(S(=O)(=O)N3CCC(C)CC3)c(C)s2)c1C`, 1160 s. The value for `Cc1ccccc1NC(=O)Cn1nc(C(=O)N2CCOCC2)c2ccccc21` was 735 s; that for `Cc1cc(F)ccc1NS(=O)(=O)c1cc(-c2[nH]ncc2C(=O)N2CCCCC2)oc1C` was 770 s. The compound `O=C(c1ccoc1)N1CCC(OCc2nc(C3CC3)no2)CC1` yielded an RP-LC retention time of 719 s. For `CCc1nc(-c2cc(S(=O)(=O)Nc3ccccc3Br)c(C)s2)cs1` the value was 1130 s; for `CC1CCN(S(=O)(=O)c2ccc3nc(N4CCN(C(=O)c5ccco5)CC4)ccc3c2)CC1`, 852 s; for `CCCNC(=O)c1cnn(-c2ccc(SCC)nn2)c1C`, 777 s. Turning to `CCC1CCCCN1C(=O)CN1CCCN(Cc2cc(C)ccc2C)S1(=O)=O` (stereo not drawn), the RP-LC retention time is 1150 s. The value for `CC(C)(C)NC(=O)Nc1nnc(SCc2c(F)cccc2Cl)s1` was 946 s; that for `Cc1ccc(F)c(NS(=O)(=O)c2cc(-c3nc(C(C)(C)C)cs3)cs2)c1` was 1260 s. Take `COc1ccc(-n2c(=O)n(C)c(=O)c3cc(C(=O)NCc4cccc(OC)c4)cnc32)cc1`: the RP-LC retention time came out at 833 s. The value for `CCNC(=O)Nc1ccc(N2CCCCC2)nc1` was 561 s. The value for `COc1ccc(CNC(=O)N2c3ccccc3CC2c2nc(C(C)C)no2)cc1` (stereo not drawn) was 1000 s; that for `Cc1cc(OCC(=O)N(Cc2ccc(N(C)C)cc2)C2CCS(=O)(=O)C2)ccc1Cl` (stereo not drawn) was 839 s; that for `CNC(=O)N1CCC(C2CCN(C(=O)C3CC=CC3)C2)CC1` (stereo not drawn) was 646 s.

The compound `CC1=NS(=O)(=O)N(C)C=C1C(=O)OCc1ccc(C)cc1` registered an RP-LC retention time of 975 s. For `N#Cc1cccnc1N1CCN(c2ccccn2)CC1`, the RP-LC retention time came out at 590 s. Compound `Cn1c(=O)oc2cc(-c3noc(/C=C/c4ccccc4)n3)ccc21` returned an RP-LC retention time of 1060 s.

On to `Cc1ccc(-c2ncc(C(=O)Nc3cc(F)cc(F)c3)c(-c3ccncc3)n2)cc1`, for which the RP-LC retention time came to 1060 s.

`Cc1nc(-c2csc(S(=O)(=O)N3CCC(C(=O)NCc4ccc5c(c4)OCO5)CC3)c2)no1` registered an RP-LC retention time of 832 s.

In turn, `Cc1oc(-c2cccs2)nc1CSc1ncnc2nc[nH]c12` registered an RP-LC retention time of 714 s. For `CCOCCCNC(=O)c1cn(C)nc1S(=O)(=O)N1CCN(c2ccccc2OCC)CC1` the value was 923 s; for `O=C([C@@H]1C[C@H](F)CN1S(=O)(=O)c1ccc(C(F)(F)F)cc1)N1CCCCC1`, 885 s; for `c1ccc(COCCc2noc(C3CN(Cc4ccncc4)C3)n2)cc1`, 605 s.

`CC(C)(C)c1nc(N2CCCCC2)c2ccccc2n1` gave an RP-LC retention time of 723 s. For `O=S(=O)(c1ccccc1Cl)N1CCCC1Cc1noc(-c2ccccc2)n1` (stereo not drawn) the value was 1110 s; for `CCOc1ccc2nc(NC(=O)CCc3csc(NC(=O)c4ccco4)n3)sc2c1`, 844 s; for `O=C(NCc1ccc(F)cc1)c1ccc2c(c1)Sc1ncccc1C(=O)N2C1CC1`, 791 s. Compound `CC(CCc1ccccc1)NC(=O)c1ccccc1NC(=O)C1=CSCCO1` (stereo not drawn) displayed an RP-LC retention time of 1080 s. The compound `CCOc1ccc(NC(=O)CN2C(=O)CC(c3cccs3)=Nc3ccccc32)cc1` returned an RP-LC retention time of 951 s. For `N#CCCSc1ccccc1NC(=O)c1ccc(S(=O)(=O)N2CCOCC2)cc1` the value was 760 s. `CCCN1CCN(c2ncc3c(n2)CCN(Cc2ccc(CC)cc2)C3)CC1` gave an RP-LC retention time of 496 s. `CC(=O)c1ccc(NC(=O)CSc2ncc(-c3ccc(C)c(C)c3)o2)cc1` had an RP-LC retention time of 970 s. As to `Cc1ccn2c(NC(=O)c3cccc(C(F)(F)F)c3)c(-c3ccccc3)nc2c1`, the RP-LC retention time worked out at 736 s.
